Values of other authors in US20080057125A1, “STABLE TABLET DOSAGE FORMS OF PROTON PUMP INHIBITORS” (priority 2005, published 2008).
Like-named read-outs stand apart in the source and are kept apart here.

Experiments:
[1] = 25° C.
[2] = from commercially marketed dosage forms

SMILES	degradation half-life in aqueous solution ([1]; pH 5.0)	degradation half-life in aqueous solution ([1]; pH 7.0)	percent bioavailability [2]
Cc1c(OCC(F)(F)F)ccnc1C[S+]([O-])c1nc2ccccc2[nH]1 (stereo not shown) [Lansoprazole, 2-[[[3-methyl-4-(2,2,2-trifluoroethoxy)-2-pyridyl]methyl]sulfinyl]benzimidazole]	approximately 0.5 hour	approximately 18 hours	80-85%
COc1ccc2[nH]c([S+]([O-])Cc3ncc(C)c(OC)c3C)nc2c1 (stereo not shown) [omeprazole, 2-[2-(3,5-dimethyl-4-methoxy)-pyridylmethylsulfinyl]-(5-methoxy)-benzimidazole]	–	–	30-40%
